In patent publication US20240383915A1, “OXAZEPINE COMPOUNDS AND USES THEREOF IN THE TREATMENT OF CANCER” (Genentech, Inc., priority 2021, published 2024):

What was measured:
KRas(G12V) = KRas(G12V) (Homo sapiens (Human), UniProt P01116, G12V); test: KRas(G12V) GDP HTRF (BODIPY-GDP exchange TR-FRET); format: biochemical
KRas = KRas (Homo sapiens (Human), UniProt P01116); test: KRas GDP HTRF (BODIPY-GDP exchange TR-FRET); format: biochemical
Experimental: KRAS Biochemical Assay—BODIPY-GDP Exchange TR-FRET. Biochemical compound potencies were assessed by evaluating inhibition of SOS1-mediated nucleotide exchange in KRAS G12D. The SOS1-promoted exchange of fluorescently-labeled GDP (BODIPY-GDP) was monitored by time-resolved fluorescence resonance energy transfer (TR-FRET). Compounds solubilized in DMSO were dispensed as concentration series into 384-well white assay plates. […] The reaction was initiated with the addition of 5 μL of 3 nM recombinant human SOS1 and 300 nM BODIPY-GDP in assay buffer. After a 60-minute incubation, the fluorescence was measured with excitation at 337 nm and emission at 490 and 520 nm. The TR-FRET ratio was determined as the fluorescence at 520 nm divided by the fluorescence at 490 nm multiplied by 10,000. […] The normalized TR-FRET results were plotted against compound concentration, and the data fit to a 4-parameter Hill equation to determine the IC50 values.

KRas(G12V), sequence (P01116-2 other isoform, or with tags, fused parts or gaps G12V): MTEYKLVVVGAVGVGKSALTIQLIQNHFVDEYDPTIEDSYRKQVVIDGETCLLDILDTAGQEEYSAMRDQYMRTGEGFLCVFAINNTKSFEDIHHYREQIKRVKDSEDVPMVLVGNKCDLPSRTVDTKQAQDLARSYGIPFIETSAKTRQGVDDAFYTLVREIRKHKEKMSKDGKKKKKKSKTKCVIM
KRas, sequence (P01116-2 other isoform, or with tags, fused parts or gaps): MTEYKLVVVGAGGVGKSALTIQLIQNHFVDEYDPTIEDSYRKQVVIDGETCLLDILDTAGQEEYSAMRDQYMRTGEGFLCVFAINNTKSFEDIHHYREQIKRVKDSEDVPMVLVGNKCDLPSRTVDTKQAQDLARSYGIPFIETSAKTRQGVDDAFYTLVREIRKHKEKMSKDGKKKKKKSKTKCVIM

SMILES | IC50 (KRas(G12V)) [nM] | IC50 (KRas) [nM]
Cc1cc(N)nc(-c2cc3ncnc4c3c(c2Cl)OCCN4Cc2cccc(=O)[nH]2)c1C(F)(F)F [Example 12, 6-((9-(6-amino-4-methyl-3-(trifluoromethyl)pyridin-2-yl)-8-chloro-5,6-dihydro-4H-[1,4]oxazepino[5,6,7-de]quinazolin-4-yl)methyl)pyridin-2(1H)-one] | 8900 | 21000
C[C@H](c1cccnc1N)N1CCOc2c(Cl)c(-c3cccc4sc(N)nc34)c(F)c3nc(OC[C@@]45CCCN4C[C@H](F)C5)nc1c23 (atropisomer, axis not shown; (aS)) [Example 100b, 4-((S)-4-((R)-1-(2-aminopyridin-3-yl)ethyl)-8-chloro-10-fluoro-2-(((2R,7aS)-2-fluorotetrahydro-1H-pyrrolizin-7a(5H)-yl)methoxy)-5,6-dihydro-4H-[1,4]oxazepino[5,6,7-de]quinazolin-9-yl)benzo[d]thiazol-2-amine] | 0.73 | 0.353
Cc1cc(N)nc(-c2cc3ncnc4c3c(c2Cl)OCCN4Cc2cccnc2)c1C(F)(F)F [Example 46, 6-(8-chloro-4-(pyridin-3-ylmethyl)-5,6-dihydro-4H-[1,4]oxazepino[5,6,7-de]quinazolin-9-yl)-4-methyl-5-(trifluoromethyl)pyridin-2-amine] | 11000 | 46000
Cc1cc(N)nc(-c2c(Cl)c3c4c(nc(OC[C@@H]5CC[C@H]6COCCN65)nc4c2F)N([C@H](C)c2nccnc2N)CCO3)c1C(F)(F)F (atropisomer, axis not shown; (aS)) [Example 104b, 3-((R)-1-((S)-9-(6-amino-4-methyl-3-(trifluoromethyl)pyridin-2-yl)-8-chloro-10-fluoro-2-(((6S,8aS)-hexahydro-1H-pyrrolo[2,1-c][1,4]oxazin-6-yl)methoxy)-5,6-dihydro-4H-[1,4]oxazepino[5,6,7-de]quinazolin-4-yl)ethyl)pyrazin-2-amine] | 16 | 35.2
Cc1cc(N)nc(-c2c(Cl)c3c4c(nc(OC[C@H](C)N5CCOCC5)nc4c2F)N([C@H](C)c2cccnc2N)CCO3)c1C(F)(F)F (atropisomer, axis not shown) [Example 95a, 6-((R)-4-((R)-1-(2-aminopyridin-3-yl)ethyl)-8-chloro-10-fluoro-2-((S)-2-morpholinopropoxy)-5,6-dihydro-4H-[1,4]oxazepino[5,6,7-de]quinazolin-9-yl)-4-methyl-5-(trifluoromethyl)pyridin-2-amine] | 0.09 | 0.83
Cc1cc(N)nc(-c2cc3ncnc4c3c(c2Cl)OCCN4Cc2c(C(F)F)ccnc2N)c1C(F)(F)F [Example 57, 6-(4-((2-amino-4-(difluoromethyl)pyridin-3-yl)methyl)-8-chloro-5,6-dihydro-4H-[1,4]oxazepino[5,6,7-de]quinazolin-9-yl)-4-methyl-5-(trifluoromethyl)pyridin-2-amine] | 270 | 2000
Cc1cc(N)nc(-c2c(Cl)c3c4c(nc(OC[C@@]56CCCN5C[C@H](F)C6)nc4c2F)N([C@H](C)c2cc(Cl)cnc2N)CCO3)c1C(F)(F)F [Example 131, 6-(4-((R)-1-(2-amino-5-chloropyridin-3-yl)ethyl)-8-chloro-10-fluoro-2-(((2R,7aS)-2-fluorotetrahydro-1H-pyrrolizin-7a(5H)-yl)methoxy)-5,6-dihydro-4H-[1,4]oxazepino[5,6,7-de]quinazolin-9-yl)-4-methyl-5-(trifluoromethyl)pyridin-2-amine] | 0.14 | 0.253
Cc1cc(N)nc(-c2cc3ncnc4c3c(c2Cl)OCCN4Cc2cncc(O)c2)c1C(F)(F)F [Example 9, 5-((9-(6-amino-4-methyl-3-(trifluoromethyl)pyridin-2-yl)-8-chloro-5,6-dihydro-4H-[1,4]oxazepino[5,6,7-de]quinazolin-4-yl)methyl)pyridin-3-ol] | 10000 | 63000
Cc1cc(N)nc(-c2c(Cl)c3c4c(ncnc4c2F)N([C@H](C)c2cccnc2N)CCO3)c1C(F)(F)F (atropisomer, axis not shown) [Example 53a, 6-((R)-4-((R)-1-(2-aminopyridin-3-yl)ethyl)-8-chloro-10-fluoro-5,6-dihydro-4H-[1,4]oxazepino[5,6,7-de]quinazolin-9-yl)-4-methyl-5-(trifluoromethyl)pyridin-2-amine] | 0.37 | 1.2
Cc1cc(N)nc(-c2c(Cl)c3c4c(nc(OC[C@@H]5CC[C@H]6COCCN65)nc4c2F)N([C@H](C)c2ccnnc2N)CCO3)c1C(F)(F)F (atropisomer, axis not shown; (aS)) [Example 175, 4-((R)-1-((R)-9-(6-amino-4-methyl-3-(trifluoromethyl)pyridin-2-yl)-8-chloro-10-fluoro-2-(((6S,8aS)-hexahydro-1H-pyrrolo[2,1-c][1,4]oxazin-6-yl)methoxy)-5,6-dihydro-4H-[1,4]oxazepino[5,6,7-de]quinazolin-4-yl)ethyl)pyridazin-3-amine] | 0.08 | 0.1
Cc1cc(N)nc(-c2c(Cl)c3c4c(nc(OC[C@@H]5CCCN5C)nc4c2F)N([C@H](C)c2cccnc2N)CCO3)c1C(F)(F)F (atropisomer, axis not shown) [Example 127, 6-((R)-4-((R)-1-(2-aminopyridin-3-yl)ethyl)-8-chloro-10-fluoro-2-(((S)-1-methylpyrrolidin-2-yl)methoxy)-5,6-dihydro-4H-[1,4]oxazepino[5,6,7-de]quinazolin-9-yl)-4-methyl-5-(trifluoromethyl)pyridin-2-amine] | 0.07 | 0.0894
Cc1cc(N)nc(-c2c(Cl)c3c4c(nc(OC[C@@H]5CC[C@H]6COCCN65)nc4c2F)N([C@H](C)c2cncc(N)c2)CCO3)c1C(F)(F)F (single isomer, unassigned) [Example 69a] | 0.11 | 0.295
C[C@H](c1cccnc1N)N1CCOc2c(Cl)c(-c3cccc4sc(N)nc34)c(F)c3nc(OC[C@@]45CCCN4C[C@H](F)C5)nc1c23 (atropisomer, axis not shown; (aS)) [Example 100a, 4-((R)-4-((R)-1-(2-aminopyridin-3-yl)ethyl)-8-chloro-10-fluoro-2-(((2R,7aS)-2-fluorotetrahydro-1H-pyrrolizin-7a(5H)-yl)methoxy)-5,6-dihydro-4H-[1,4]oxazepino[5,6,7-de]quinazolin-9-yl)benzo[d]thiazol-2-amine] | 0.03 | 0.03
Cc1cc(N)nc(-c2c(Cl)c3c4c(nc(OC[C@@]56CCCN5C[C@H](F)C6)nc4c2F)N(C)CCO3)c1C(F)(F)F (single isomer, unassigned) [Example 41b] | 1200 | 6500
Cc1cc(N)nc(-c2c(Cl)c3c4c(nc(OCCN5C6CCC5CN(C)C6)nc4c2F)N([C@H](C)c2cccnc2N)CCO3)c1C(F)(F)F [Example 94, 6-((9R)-4-((R)-1-(2-aminopyridin-3-yl)ethyl)-8-chloro-10-fluoro-2-(2-(3-methyl-3,8-diazabicyclo[3.2.1]octan-8-yl)ethoxy)-5,6-dihydro-4H-[1,4]oxazepino[5,6,7-de]quinazolin-9-yl)-4-methyl-5-(trifluoromethyl)pyridin-2-amine] | 0.07 | 0.175
Cc1cc(N)nc(-c2c(Cl)c3c4c(nc(OC[C@H]5COCCN5)nc4c2F)N([C@H](C)c2cccnc2N)CCO3)c1C(F)(F)F (atropisomer, axis not shown) [Example 97, 6-((R)-4-((R)-1-(2-aminopyridin-3-yl)ethyl)-8-chloro-10-fluoro-2-(((R)-morpholin-3-yl)methoxy)-5,6-dihydro-4H-[1,4]oxazepino[5,6,7-de]quinazolin-9-yl)-4-methyl-5-(trifluoromethyl)pyridin-2-amine] | 0.08 | 0.359
Cc1cc(N)nc(-c2c(Cl)c3c4c(nc(OC[C@@H]5CC[C@H]6CO[C@H](C)CN56)nc4c2F)N([C@H](C)c2cccnc2N)CCO3)c1C(F)(F)F (atropisomer, axis not shown; (aS)) [Example 93c, 6-((R)-4-((R)-1-(2-aminopyridin-3-yl)ethyl)-8-chloro-10-fluoro-2-(((3R,6S,8aS)-3-methylhexahydro-1H-pyrrolo[2,1-c][1,4]oxazin-6-yl)methoxy)-5,6-dihydro-4H-[1,4]oxazepino[5,6,7-de]quinazolin-9-yl)-4-methyl-5-(trifluoromethyl)pyridin-2-amine] | 0.07 | 0.145
Cc1cc(N)nc(-c2c(Cl)c3c4c(nc(OC[C@@]56CCN5CC(F)(F)C6)nc4c2F)N([C@H](C)c2nccnc2N)CCO3)c1C(F)(F)F (single isomer, unassigned) [Example 162d] | 410 | 896
Cc1cc(N)nc(-c2c(Cl)c3c4c(nc(OC[C@@H]5CCCN5CC(F)F)nc4c2F)N([C@H](C)c2cncnc2N)CCO3)c1C(F)(F)F (atropisomer, axis not shown) [Example 103a, 5-((R)-1-((R)-9-(6-amino-4-methyl-3-(trifluoromethyl)pyridin-2-yl)-8-chloro-2-(((S)-1-(2,2-difluoroethyl)pyrrolidin-2-yl)methoxy)-10-fluoro-5,6-dihydro-4H-[1,4]oxazepino[5,6,7-de]quinazolin-4-yl)ethyl)pyrimidin-4-amine] |  | 1.13
